Legend:
Assay type in all cases: physicochemical
[1] = Film formation on the skin, cure time to disappearance of surface tackiness; details: adhesive with 2-5% active ingredient; ^2 = suspension
Text: (§1) 0.45 g of PEG 200 were mixed thoroughly with 0.55 g of aspartate B and 2-5% of the active ingredient. The solution was stirred with 4 g of prepolymer A and applied to the tissue. We tested for processing time and the effect of adhesion to meat as well as the formation of a film on the skin.

[2] = Pot life (processing time) of adhesive with active ingredient; details: 0.45 g PEG 200, 0.55 g aspartate B, 2-5% active ingredient, 4 g prepolymer A; ^2 = active substance in suspension
Text: as §1

[3] = Active substance release from adhesive film into physiological saline (HPLC-UV/MS); details: 37° C., 2 h; for Release: 5x5 cm section (0.5 g) in 20 g physiological saline; for Amount of active substance released [%]: physiological saline
Protocol: For the quantitative determination of the active substance release, a transparent film with a thickness of 200 ? was produced by knife coating from 4 g of prepolymer A, 0.45 g of PEG 200, […] A section measuring 5×5 cm (weight: 0.5 g) was cut from this film, placed in a petri dish, covered with 20 g of physiological saline solution, and stored in an incubator at 37° C. for 2 h. The quantitative determination was carried out via HPLC-UV/MS (HPLC column: Inertsil ODS 3 5 □ 120 A 125 mm*2.1 mm 60° C.; eluent A: 25 mmol ammonium acetate in water, eluent B: 25 mmol ammonium acetate in methanol).

[4] = 250 mg active substance in film
[5] = 100 mg active substance in film

| Structure (SMILES) | Film formation cure time [min to disappearance of surface tackiness] [1] | other results |
| --- | --- | --- |
| CCCCN1CCCCC1C(=O)Nc1c(C)cccc1C (stereo not shown) [bupivacaine] | 6 min | – |
| CCN1CCN(c2cc3c(cc2F)c(=O)c(C(=O)O)cn3C2CC2)CC1 [enrofloxazine] | 4 min | Pot life [2]: 1 min |
| CCN(CC)CC(=O)Nc1c(C)cccc1C [lidocaine] | 4 min | Release [3, 4]: 570 mg/L; Amount of active substance released [%] [3, 4]: 45.6% |
| O=C(N[C@H](CO)[C@H](O)c1ccc([N+](=O)[O-])cc1)C(Cl)Cl [chloramphenicol] | 5 min | Release [3, 4]: 646 mg/L; Amount of active substance released [%] [3, 4]: 51.7% |
| OC(Cn1cncn1)(Cn1cncn1)c1ccc(F)cc1F [fluconazole] | 15 min | Pot life [2]: 3 min |
| CC(=O)Oc1ccccc1C(=O)O [acetylsalicylic acid] | 4 min | Release [3, 4]: 320 mg/L; Amount of active substance released [%] [3, 4]: 25.6% |
| CCOC(=O)c1ccc(N)cc1 [benzocaine] | 6 min | – |
| COc1ccc2c(c1)c(CC(=O)OCC(=O)O)c(C)n2C(=O)c1ccc(Cl)cc1 [acemetacine] | 7 min | – |
| CC(C)Cc1ccc(C(C)C(=O)O)cc1 (stereo not shown) [ibuprofen] | 6 min | – |
| Cc1ncc([N+](=O)[O-])n1CCO [metronidazole] | 5 min | Pot life [2]: 2 min |
| CCn1cc(C(=O)O)c(=O)c2ccc(C)nc21 [nalidixic acid] | 5 min | Release [3, 5]: 110 mg/L; Amount of active substance released [%] [3, 5]: 22% |
| CC(=O)Nc1ccc(O)cc1 [paracetamol] | 7 min | Release [3, 5]: 136 mg/L; Amount of active substance released [%] [3, 5]: 27.2% |
| [H]/N=C(\N/C(=N/[H])NCCCCCCNC(=N)NC(=N)Nc1ccc(Cl)cc1)Nc1ccc(Cl)cc1 [chlorhexidine] | 3 min | Pot life [2]: 0.5 min |
| CC[C@H]1OC(=O)[C@H](C)[C@@H](O[C@H]2C[C@@](C)(OC)[C@@H](O)[C@H](C)O2)[C@H](C)[C@@H](O[C@@H]2O[C@H](C)C[C@H](N(C)C)[C@H]2O)[C@](C)(O)C[C@@H](C)C(=O)[C@H](C)[C@@H](O)[C@]1(C)O [erythromycin] | 6 min | – |
| Cc1ccc(C(C)C)c(O)c1 [thymol] | 5 min | – |
| O=C1OC(CN2CCOCC2)CN1/N=C/c1ccc([N+](=O)[O-])o1 (stereo not shown) [furaldatone] | 4 min | – |
| C[C@]12CCC(=O)C=C1CC[C@@H]1[C@@H]2C(=O)C[C@@]2(C)[C@H]1CC[C@]2(O)C(=O)CO [cortisone] | 5 min | Release [3, 5]: 230 mg/L; Amount of active substance released [%] [3, 5]: 46% |
| Oc1cc(Cl)ccc1Oc1ccc(Cl)cc1Cl [triclosan (Irgasan), 2,4,4′-trichloro-2′-hydroxydiphenyl ether] | 5 min | – |
| CC(=O)NS(=O)(=O)c1ccc(N)cc1 [sulfacetamide] | 5 min | – |
| COc1cccc(C2(O)CCCCC2CN(C)C)c1 (stereo not shown) [tramadol] | 4 min | – |
| CCCCNc1ccc(C(=O)OCCN(C)C)cc1 [tetracaine] | 7 min | – |
